{
  "source": "patent US20220104481A1",
  "about": "“CRYOPRESERVATION OF STEM CELLS” (TiGenix, S.A.U., priority 2019, published 2022)",
  "data": [
    {"tested_on": "ASCs", "assay": "MTS assay after post-thaw seeding of ASCs pretreated with compounds prior to freezing", "format": "cell-based, human", "conditions": "24 hours pretreatment before freezing (LY294 10 μM, sc79 10 μM, Exendin-4 20 nM)", "procedure": "ASCs from donor A were thawed by warming the vials in a 37° C. bath and diluting the freezing medium containing DMSO with fresh complete DMEM (DMEM/F-12 media—GlutaMAX™-I, Gibco, supplemented with 100 μg/mL penicillin/streptomycin and 10% FBS). Cells were centrifuged at 450 g for 6 minutes at room temperature to eliminate leftover DMSO and plated in T-175 flasks at 20.000 cells/cm^2 in complete DMEM.\nA 600 mM stock of NAC (SIGMA) was prepared in Milli-Q water (Millipore). This stock was used for pre-treatment and post-treatment by adding directly 50 μL stock solution per well into 5 mL of medium, making a final concentration of 6 mM. For 2 mM, only 16.7 μL were added per well, and in the case of 12 mM, 100 μL of stock were added. DMSO was used as the vehicle for sc79 and LY294.\nFollowing the pretreatment step, the medium was removed, the cells were washed with PBS and trypsinized using trypsin-EDTA 0.25% (ThermoFisher) for 8 minutes at 37° C. After trypsin inactivation with complete DMEM, cells were harvested and centrifuged prior to resuspension in freezing medium (FBS with 10% DMSO), and frozen into 500,000 or 1 million cells per vial and stored in liquid nitrogen for further use. Specifically, the cells were frozen at −80° C. for 24 hours in a Cool Cell® device (BioCision) and then transferred to a liquid nitrogen storage container. All experiments were performed in incubators and 37° C., 5% CO2.\n[…] The CellTiter 96° Aqueous One Solution Cell Proliferation Assay is a colorimetric method for determining the number of viable cells. The CellTiter 96° Aqueous One Solution reagent contains a tetrazolium compound [3-(4,5-dimethylthiazol-2-yl)-5-(3-carboxymethoxyphenyl)-2-(4-sulfophenyl)-2H-tetrazolium, MTS] and an electron coupling reagent (phenazine ethosulfate; PES). The MTS tetrazolium compound is bioreduced by cells—presumably by NADPH or NADH produced by dehydrogenase enzymes in metabolically active cells—into a coloured formazan product that is soluble in tissue culture medium.\nBriefly, 40 μL of the reagent was added to 200 μL of complete DMEM in each well and absorbance was measured after 2-3 hours at 490 nm using a […]. Each condition was measured in 6 technical repeats. The MTS assay results are presented as percentage of absorbance at 490 nm relative to the non-treated (NT) cells.", "values": [
      {"compound": "Exendin-4", "effect of pre-treatment on post-thaw cell number": "did not show reproducible effects on cell number"},
      {"compound": "O=c1cc(N2CCOCC2)oc2c(-c3ccccc3)cccc12", "note": "[LY294]", "effect of pre-treatment on post-thaw cell number": "did not show reproducible effects on cell number"},
      {"compound": "IL6: pre-treatment assessed in addition to NAC; no concentration given", "effect of pre-treatment on post-thaw cell number": "did not show reproducible effects on cell number"},
      {"compound": "CCOC(=O)C1=C(N)Oc2ccc(Cl)cc2C1C(C#N)C(=O)OCC", "note": "(stereo not shown) [sc79]", "effect of pre-treatment on post-thaw cell number": "did not show reproducible effects on cell number"}
    ]}
  ]
}
